“And” between values parts separate entries of the source, which are not always exact repeats. Equal values may be shown once. Where a name gives a salt, the structure may show the parent alone. Read-outs that look alike come from different tables or passages of the source.
Experiments:
LOXL3 [1] = target: T1, LOXL3 (Homo sapiens, UniProt P58215); assay: LOXL3 enzyme assay (Promega ROS-Glo, cadaverine substrate); format: biochemical
T1 sequence (P58215 26-753): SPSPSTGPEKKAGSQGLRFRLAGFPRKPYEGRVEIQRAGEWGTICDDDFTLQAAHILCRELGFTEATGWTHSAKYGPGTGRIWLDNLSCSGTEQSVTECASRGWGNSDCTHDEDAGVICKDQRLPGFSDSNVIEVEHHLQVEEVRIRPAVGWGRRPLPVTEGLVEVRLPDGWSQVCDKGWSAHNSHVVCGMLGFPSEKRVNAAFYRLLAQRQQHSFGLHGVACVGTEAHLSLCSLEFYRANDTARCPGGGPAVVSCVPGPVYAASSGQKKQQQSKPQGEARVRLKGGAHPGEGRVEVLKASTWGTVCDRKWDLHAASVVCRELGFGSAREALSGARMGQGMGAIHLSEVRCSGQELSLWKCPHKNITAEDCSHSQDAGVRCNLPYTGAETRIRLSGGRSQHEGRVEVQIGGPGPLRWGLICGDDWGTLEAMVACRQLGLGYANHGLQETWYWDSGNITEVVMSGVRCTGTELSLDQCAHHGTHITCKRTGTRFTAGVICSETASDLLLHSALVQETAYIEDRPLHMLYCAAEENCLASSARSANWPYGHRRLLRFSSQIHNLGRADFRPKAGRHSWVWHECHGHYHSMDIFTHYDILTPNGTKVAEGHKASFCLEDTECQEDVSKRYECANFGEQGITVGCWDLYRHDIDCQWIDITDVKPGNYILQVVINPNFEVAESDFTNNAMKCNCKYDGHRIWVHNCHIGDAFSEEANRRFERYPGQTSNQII
Procedure: (§1) LOXL2 and LOXL3 were purchased from R&D Systems. LOX, LOXL2, and LOXL3 catalytic activity were determined using the Promega ROS-Glo assay kit with cadaverine dihydrochloride as substrate, BAPN as the reference inhibitor control, a preincubation time of 20 min, 1 h, or 3 h, with nine dilutions from a top concentration of 10 μM or 100 μM.

LOXL2 [2] = target: T2, LOXL2 (Homo sapiens, UniProt Q9Y4K0); format: biochemical
T2 sequence (Q9Y4K0 26-774): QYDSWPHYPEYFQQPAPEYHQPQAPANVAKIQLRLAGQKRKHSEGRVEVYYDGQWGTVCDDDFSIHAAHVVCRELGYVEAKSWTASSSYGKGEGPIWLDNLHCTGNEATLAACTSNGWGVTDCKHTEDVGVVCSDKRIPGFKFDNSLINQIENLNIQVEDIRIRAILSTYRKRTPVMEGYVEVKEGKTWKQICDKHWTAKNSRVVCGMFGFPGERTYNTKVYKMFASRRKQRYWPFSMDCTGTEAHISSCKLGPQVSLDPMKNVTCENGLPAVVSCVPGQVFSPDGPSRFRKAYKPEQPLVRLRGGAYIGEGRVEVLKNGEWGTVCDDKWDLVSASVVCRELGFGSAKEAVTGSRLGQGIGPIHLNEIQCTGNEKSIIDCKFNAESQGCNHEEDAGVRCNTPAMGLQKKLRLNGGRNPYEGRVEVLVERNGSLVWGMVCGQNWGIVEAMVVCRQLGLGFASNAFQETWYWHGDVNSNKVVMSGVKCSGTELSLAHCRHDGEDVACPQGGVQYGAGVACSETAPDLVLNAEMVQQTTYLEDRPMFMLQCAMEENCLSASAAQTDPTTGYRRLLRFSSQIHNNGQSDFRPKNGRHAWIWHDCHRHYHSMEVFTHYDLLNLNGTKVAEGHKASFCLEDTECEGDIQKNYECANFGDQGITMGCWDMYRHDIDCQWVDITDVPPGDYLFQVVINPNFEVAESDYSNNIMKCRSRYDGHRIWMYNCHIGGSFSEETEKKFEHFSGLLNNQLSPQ
Procedure: The enzyme/inhibitor mixture was then diluted 100-fold into a solution containing all enzyme reaction components, and the activity of the enzyme was assessed.
LOXL2 catalytic activity was determined using the Amplex Red hydrogen peroxide assay kit with cadaverine dihydrochloride as substrate. […] The enzyme/inhibitor mixture was then diluted 100-fold into a solution containing substrate and detection reagents and read kinetically every 5 min.

LOXL2 [3] = target: T2, LOXL2; assay: LOXL2 enzyme assay (Promega ROS-Glo, cadaverine substrate); format: biochemical
Procedure: as §1

LOX = target: T3, LOX (Sus scrofa, UniProt P45845); assay: LOX enzyme assay (Promega ROS-Glo, cadaverine substrate); format: biochemical, pig
T3 sequence (P45845 1-249): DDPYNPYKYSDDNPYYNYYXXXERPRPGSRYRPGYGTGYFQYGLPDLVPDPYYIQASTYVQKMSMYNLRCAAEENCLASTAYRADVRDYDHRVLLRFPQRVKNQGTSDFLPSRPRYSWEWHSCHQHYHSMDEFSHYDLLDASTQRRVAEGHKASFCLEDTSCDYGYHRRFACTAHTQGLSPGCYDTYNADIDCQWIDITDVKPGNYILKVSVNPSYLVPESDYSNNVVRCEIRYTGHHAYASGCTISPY
Procedure: as §1

LOXL3 [4] = target: T1, LOXL3; set-up: method as in PMID 30536539, PMID 28471663; settings: literature compounds; cited from earlier work
DAO = target: T4, DAO (Sus scrofa, UniProt Q9TRC7); format: biochemical; settings: Table 7
T4 construct: purchased Sigma
T4 sequence (Q9TRC7 25-755): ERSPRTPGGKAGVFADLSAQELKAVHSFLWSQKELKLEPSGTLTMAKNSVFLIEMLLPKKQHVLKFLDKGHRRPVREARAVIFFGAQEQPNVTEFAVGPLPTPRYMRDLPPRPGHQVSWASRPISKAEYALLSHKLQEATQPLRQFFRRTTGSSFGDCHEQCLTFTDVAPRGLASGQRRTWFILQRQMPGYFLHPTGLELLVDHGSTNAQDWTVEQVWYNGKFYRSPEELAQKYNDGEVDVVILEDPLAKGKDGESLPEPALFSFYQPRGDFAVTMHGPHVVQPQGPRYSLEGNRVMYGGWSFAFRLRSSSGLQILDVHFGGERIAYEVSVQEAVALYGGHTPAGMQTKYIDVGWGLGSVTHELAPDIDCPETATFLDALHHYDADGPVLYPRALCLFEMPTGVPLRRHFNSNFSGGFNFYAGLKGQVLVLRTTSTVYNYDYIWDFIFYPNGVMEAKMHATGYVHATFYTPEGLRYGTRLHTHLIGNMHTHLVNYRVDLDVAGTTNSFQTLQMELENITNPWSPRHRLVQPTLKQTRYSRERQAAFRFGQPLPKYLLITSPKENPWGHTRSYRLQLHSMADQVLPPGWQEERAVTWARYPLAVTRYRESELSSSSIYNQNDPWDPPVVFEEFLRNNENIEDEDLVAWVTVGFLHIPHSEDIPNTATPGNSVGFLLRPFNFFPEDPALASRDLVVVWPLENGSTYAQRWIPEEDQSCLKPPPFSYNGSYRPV
Procedure: (§2) All amine oxidase assays were performed with concentrations as above. MAO-A and MAO-B enzymes were purchased from Sigma. The catalytic activity of MAO-A and MAO-B was determined using the Promega MAO-Glo assay kit (substrate included), with clorgyline and deprenyl as reference inhibitor controls, respectively. DAO was purchased from Sigma, and the catalytic activity was determined using the Promega ROS-Glo assay kit, with aminoguanidine as the reference inhibitor control. SSAO was purchased from Sigma. SSAO catalytic activity was determined using the Promega MAO-Glo assay kit, with mofegiline as the reference inhibitor control.

SSAO [5] = target: T5, SSAO (Homo sapiens, UniProt Q16853); format: biochemical
T5 construct: purchased Sigma
T5 sequence (Q16853 1-763): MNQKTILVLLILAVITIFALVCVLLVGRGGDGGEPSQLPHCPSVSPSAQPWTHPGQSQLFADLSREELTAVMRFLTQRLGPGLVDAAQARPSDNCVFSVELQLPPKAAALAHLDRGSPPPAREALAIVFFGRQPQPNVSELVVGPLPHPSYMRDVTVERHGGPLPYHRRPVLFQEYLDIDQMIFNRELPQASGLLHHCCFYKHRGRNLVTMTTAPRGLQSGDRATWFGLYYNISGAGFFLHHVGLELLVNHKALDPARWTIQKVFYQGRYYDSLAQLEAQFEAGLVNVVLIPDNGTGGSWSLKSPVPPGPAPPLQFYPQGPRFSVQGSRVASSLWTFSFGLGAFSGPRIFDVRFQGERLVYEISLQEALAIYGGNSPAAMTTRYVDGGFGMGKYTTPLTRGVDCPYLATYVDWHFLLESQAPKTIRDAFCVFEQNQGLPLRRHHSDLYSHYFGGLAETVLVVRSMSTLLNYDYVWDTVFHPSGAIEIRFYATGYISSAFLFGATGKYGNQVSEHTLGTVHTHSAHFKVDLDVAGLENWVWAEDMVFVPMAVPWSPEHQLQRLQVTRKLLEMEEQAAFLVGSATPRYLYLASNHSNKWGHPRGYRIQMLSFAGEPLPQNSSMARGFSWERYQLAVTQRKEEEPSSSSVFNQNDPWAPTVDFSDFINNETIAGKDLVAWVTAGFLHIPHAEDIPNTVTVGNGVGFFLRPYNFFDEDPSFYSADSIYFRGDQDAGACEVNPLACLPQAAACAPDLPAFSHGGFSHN
Procedure: as §2

MAO-A = target: T6, MAO-A (Homo sapiens, UniProt P21397); format: biochemical; settings: Table 7
T6 construct: purchased Sigma
T6 sequence (P21397 1-527): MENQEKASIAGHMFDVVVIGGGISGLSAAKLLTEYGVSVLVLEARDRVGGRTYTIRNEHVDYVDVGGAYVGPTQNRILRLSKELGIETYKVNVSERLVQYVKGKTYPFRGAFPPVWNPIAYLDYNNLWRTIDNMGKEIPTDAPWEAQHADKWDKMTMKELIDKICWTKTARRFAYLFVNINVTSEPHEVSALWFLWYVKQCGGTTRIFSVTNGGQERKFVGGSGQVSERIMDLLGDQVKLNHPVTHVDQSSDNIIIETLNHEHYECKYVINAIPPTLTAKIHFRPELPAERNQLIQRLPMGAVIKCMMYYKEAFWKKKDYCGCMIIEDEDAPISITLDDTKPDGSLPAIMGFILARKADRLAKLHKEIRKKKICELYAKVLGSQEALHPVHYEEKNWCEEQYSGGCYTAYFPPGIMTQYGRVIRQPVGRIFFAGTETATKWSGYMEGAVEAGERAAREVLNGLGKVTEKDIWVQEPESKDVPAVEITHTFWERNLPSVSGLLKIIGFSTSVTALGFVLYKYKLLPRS
Procedure: as §2

MAO-B = target: T7, MAO-B (Homo sapiens, UniProt P27338); format: biochemical; settings: Table 7
T7 construct: purchased Sigma
T7 sequence (P27338 1-520): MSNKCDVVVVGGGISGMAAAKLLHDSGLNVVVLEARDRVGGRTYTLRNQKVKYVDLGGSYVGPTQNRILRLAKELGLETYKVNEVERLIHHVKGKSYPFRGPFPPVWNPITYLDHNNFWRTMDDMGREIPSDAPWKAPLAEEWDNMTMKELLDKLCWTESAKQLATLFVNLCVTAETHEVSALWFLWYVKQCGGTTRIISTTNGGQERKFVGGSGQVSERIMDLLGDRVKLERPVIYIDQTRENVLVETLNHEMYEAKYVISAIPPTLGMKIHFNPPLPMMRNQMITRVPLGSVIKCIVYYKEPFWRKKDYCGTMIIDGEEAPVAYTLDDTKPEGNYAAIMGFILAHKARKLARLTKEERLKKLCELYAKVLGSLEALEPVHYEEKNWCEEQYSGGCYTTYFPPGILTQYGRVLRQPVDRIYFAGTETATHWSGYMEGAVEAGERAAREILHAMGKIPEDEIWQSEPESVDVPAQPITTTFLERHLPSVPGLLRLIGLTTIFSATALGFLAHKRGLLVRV
Procedure: as §2

SSAO [6] = target: T5, SSAO; assay: Assessment of compound as a substrate for SSAO (Amplex red); format: biochemical; settings: hydrogen peroxide quantified with Amplex red kit; benzylamine positive control
[7] = supplementary csv, unit inferred

N#CCCN [BAPN, β-aminopropionitrile, reference compound]
IC50 (LOXL3 [1]): 0.31 µM | LOXL2 inhibition at 10 × IC50 before dilution (LOXL2 [2]): complete inhibition | mode of LOXL2 inhibition (LOXL2 [2]): irreversible inhibitor | IC50 (LOXL2 [3]; read-out: LOXL2, 20 min, IC50): 4.26 µM | IC50 (LOXL2 [3]; read-out: LOXL2, 1 h, IC50): 0.665 µM | IC50 (LOXL2 [3]; read-out: LOXL2, 3 h, IC50): 0.372 µM | IC50 (LOXL2 [3]; read-out: LOXL2 IC50): 0.665 µM | IC50 (LOX): 3.14 µM

Cc1c(-c2cccc(S(=O)(=O)N(C)C)c2)c2ncccc2n1C/C(F)=C/CN [Compound 1]
activity for LOXL2 and LOXL3 within x-fold (LOXL3 [4]): ≤ 3 fold

NCc1cc(Oc2cccc(C(=O)N3C[C@@H](O)[C@H](F)C3)c2)nc(C(F)(F)F)c1 [Compound 2]
activity for LOXL2 and LOXL3 within x-fold (LOXL3 [4]): ≤ 3 fold

Cn1cc(-c2cc(S(C)(=O)=O)cc(S(=O)(=O)c3cnc(CN)s3)c2)cn1 [Compound 21a, (5-((3-(1-Methyl-1H-pyrazol-4-yl)-5-(methylsulfonyl)phenyl)sulfonyl)thiazol-2-yl)methanamine Hydrochloride]
IC50 (DAO): > 100 µM | IC50 (SSAO [5]; Table 7): 13.3 µM and 17.2 µM | IC50 (MAO-A): > 100 µM | IC50 (LOXL3 [1]): 1.22 µM and 1.51 µM | IC50 (LOXL3 [1]; Table 6, 1 h preincubation): ~1 µM | IC50 (MAO-B): > 100 µM | IC50 (LOX; Table 6, 1 h preincubation): 3.42 µM and 2.65 µM

CCc1cc(-c2cnn(C)c2)cc(S(=O)(=O)c2cnc(CN)s2)c1 [Compound 21b, (5-((3-Ethyl-5-(1-methyl-1H-pyrazol-4-yl)phenyl)sulfonyl)thiazol-2-yl)methanamine Hydrochloride]
substrate of SSAO (SSAO [6]): not a substrate of SSAO | IC50 (SSAO [5]): 28.6 µM and 19.6 µM

CS(=O)(=O)c1cc(-c2ccccc2)cc(S(=O)(=O)c2csc(CN)n2)c1 [Compound 22b, (4-((5-(Methylsulfonyl)-[1,1′-biphenyl]-3-yl)sulfonyl)thiazol-2-yl)methanamine Hydrochloride]
IC50 (DAO): > 100 µM | IC50 (SSAO [5]; Table 7): > 100 µM | IC50 (MAO-A): > 100 µM | IC50 (LOXL3 [1]): 3.86 µM and 4.26 µM | IC50 (MAO-B): > 100 µM | IC50 (LOX; Table 6, 1 h preincubation): > 100 µM | IC50 (LOX; [7]): > 100 µM

Cn1cc(-c2cc(S(C)(=O)=O)cc(S(=O)(=O)c3csc(CN)n3)c2)cn1 [Compound 22c, (4-((3-(1-Methyl-1H-pyrazol-4-yl)-5-(methylsulfonyl)phenyl)sulfonyl)thiazol-2-yl)methanamine Hydrochloride]
IC50 (DAO): > 100 µM | IC50 (SSAO [5]; Table 7): > 100 µM | IC50 (MAO-A): > 100 µM | IC50 (LOXL3 [1]): 7.56 µM and 6.69 µM | IC50 (MAO-B): > 100 µM | IC50 (LOX; Table 6, 1 h preincubation): > 100 µM | IC50 (LOX; [7]): > 100 µM

— publication PMC7073924, “2-Aminomethylene-5-sulfonylthiazole Inhibitors of Lysyl Oxidase (LOX) and LOXL2 Show Significant Efficacy in Delaying Tumor Growth” (Journal of Medicinal Chemistry, 2019)
